Measurements as given in publication PMC12717099, “Peptidoglycan recruitment by a penicillin binding protein” (Nature Communications, 2025).

Legend:
Assay type in all cases: binding, Enterococcus faecium
PBP5:PenG complex (1:8) = test: NMR CSP titration of stem peptides into PenG-saturated PBP5; conditions: PBP5:PenG 1:8, then SP titration
Experimental: Data was processed using Topspin 4.1.4 (Bruker) and analyzed using NMRFAM-SPARKY 1.3 and Poky (build number 20240829)[20],[21]. The sequence-specific backbone assignment of PBP5 is publicly available at BMRBID 51690.
SPs (SP1 to SP7) were titrated into 0.5 mM (^2H,^15N)-labeled and 0.1 mM (^2H,^15N)/^13C ILV labeled PBP5 at molar ratios of 0:1, 5:1, 10:1, 20:1, 40:1, 60:1, and 80:1 (stem peptide/SP:PBP5; molar ratios). 2D [^1H,^15N] TROSY or 2D [^1H,^13C] HMQC spectra were recorded for each titration point. SPs were solubilized in NMR buffer. Chemical shift perturbations (Δδ) between PBP5 and SP bound PBP5 spectra were calculated using Eq. 1,1 Δδppm=ΔδH^2+ΔδX/Y^2 where, X is ^15N or ^13C and Y is the constant i.e., 10 for ^15N and 4 for ^13C.
Residues with significant CSPs were identified by calculating the standard deviation of all CSPs (σ), then excluding any CSPs larger than average+2σ, recalculating σ as a new corrected σ0, and then repetitively removing CSPs above 2σ0 until no additional CSPs can be removed. CSPs above ≥2σ2 was the statistical threshold for ^1H/^15N backbone CSP analysis and ≥2xσ1 for ^1H/^13C methyl ILV data for the interaction of SP1 with PBP5. The same threshold values were used for all other peptides to allow for direct comparison with the SP1/PBP5 interaction. […]

PBP5 = test: 1D 1H STD NMR of stem peptides with PBP5; conditions: for STD % to SP1: normalised to highest SP1:PBP5 value; for STD amplification factor: protein:peptide 1:100, 2 s saturation, 308 K
Description: (§1) Total saturation time for STD measurements was 2 s.
(§2) Overlapped peaks were completely excluded from the analysis.

PBP5:PenG complex = test: 1D 1H STD NMR of stem peptides with PBP5:PenG; conditions: for STD amplification factor: PenG-saturated PBP5, 2 s saturation
Description: as §1, §2

D-Lac-L-Ala-D-iGln-L-Lys(D-iAsn) [SP2]
CSPs in presence vs absence of penicillin, in words (PBP5:PenG complex (1:8)): nearly identical | STD amplification factor as fraction of highest SP1:PBP5 value (PBP5; 1H DLacβ): 0.3338 | STD % to SP1 (PBP5; 1H DLacβ): 33.3802% | STD amplification factor (PBP5; 1H DLacβ): 8.982 | STD amplification factor as fraction of highest SP1:PBP5 value (PBP5; 1H DQ2β (first listed)): 0.6658 | STD % to SP1 (PBP5; 1H DQ2β (first listed)): 66.5792% | STD amplification factor (PBP5; 1H DQ2β (first listed)): 17.9154 | STD amplification factor as fraction of highest SP1:PBP5 value (PBP5; 1H DQ2β (second listed)): 0.8494 | STD % to SP1 (PBP5; 1H DQ2β (second listed)): 84.9407% | STD amplification factor (PBP5; 1H DQ2β (second listed)): 22.8562 | STD amplification factor as fraction of highest SP1:PBP5 value (PBP5; 1H DQ2γ): 0.2468 | STD % to SP1 (PBP5; 1H DQ2γ): 24.6819% | STD amplification factor (PBP5; 1H DQ2γ): 6.6415 | STD amplification factor as fraction of highest SP1:PBP5 value (PBP5; 1H K3α): 0.4302 | STD % to SP1 (PBP5; 1H K3α): 43.0201% | STD amplification factor (PBP5; 1H K3α): 11.576 | STD amplification factor as fraction of highest SP1:PBP5 value (PBP5; 1H K3β): 0.9507 | STD % to SP1 (PBP5; 1H K3β): 95.0654% | STD amplification factor (PBP5; 1H K3β): 25.5806 | STD amplification factor as fraction of highest SP1:PBP5 value (PBP5; 1H K3γ): 0.5906 | STD % to SP1 (PBP5; 1H K3γ): 59.0623% | STD amplification factor (PBP5; 1H K3γ): 15.8927 | STD amplification factor as fraction of highest SP1:PBP5 value (PBP5; 1H K3δ): 0.6971 | STD % to SP1 (PBP5; 1H K3δ): 69.7058% | STD amplification factor (PBP5; 1H K3δ): 18.7567 | STD amplification factor as fraction of highest SP1:PBP5 value (PBP5; 1H K3ε): 0.1751 | STD % to SP1 (PBP5; 1H K3ε): 17.5055% | STD amplification factor (PBP5; 1H K3ε): 4.71 | STD amplification factor as fraction of highest SP1:PBP5 value (PBP5; 1H LA1α): 0.3317 | STD % to SP1 (PBP5; 1H LA1α): 33.1655% | STD amplification factor (PBP5; 1H LA1α): 8.924 | STD amplification factor as fraction of highest SP1:PBP5 value (PBP5; 1H LA1β): 0.3463 | STD % to SP1 (PBP5; 1H LA1β): 34.6271% | STD amplification factor (PBP5; 1H LA1β): 9.318 | STD amplification factor as fraction of highest SP1:PBP5 value (PBP5; 1H iNα,DQ2α): 0.2066 | STD % to SP1 (PBP5; 1H iNα,DQ2α): 20.663% | STD amplification factor (PBP5; 1H iNα,DQ2α): 5.56 | STD amplification factor as fraction of highest SP1:PBP5 value (PBP5; 1H iNβ): 0.2856 | STD % to SP1 (PBP5; 1H iNβ): 28.5568% | STD amplification factor (PBP5; 1H iNβ): 7.684 | STD amplification factor, ref to SP1 (fraction) (PBP5:PenG complex; 1H DLacβ): 0.3213 | STD, ref to SP1 (percent) (PBP5:PenG complex; 1H DLacβ): 32.1311 | STD amplification factor (PBP5:PenG complex; 1H DLacβ): 8.646 | STD amplification factor, ref to SP1 (fraction) (PBP5:PenG complex; 1H DQ2β (first listed)): 0.7026 | STD, ref to SP1 (percent) (PBP5:PenG complex; 1H DQ2β (first listed)): 70.2576 | STD amplification factor (PBP5:PenG complex; 1H DQ2β (first listed)): 18.9052 | STD amplification factor, ref to SP1 (fraction) (PBP5:PenG complex; 1H DQ2β (second listed)): 0.9395 | STD, ref to SP1 (percent) (PBP5:PenG complex; 1H DQ2β (second listed)): 93.9523 | STD amplification factor (PBP5:PenG complex; 1H DQ2β (second listed)): 25.2811 | STD amplification factor, ref to SP1 (fraction) (PBP5:PenG complex; 1H DQ2γ): 0.3025 | STD, ref to SP1 (percent) (PBP5:PenG complex; 1H DQ2γ): 30.2481 | STD amplification factor (PBP5:PenG complex; 1H DQ2γ): 8.139 | STD amplification factor, ref to SP1 (fraction) (PBP5:PenG complex; 1H K3α): 0.5268 | STD, ref to SP1 (percent) (PBP5:PenG complex; 1H K3α): 52.6829 | STD amplification factor (PBP5:PenG complex; 1H K3α): 14.1761 | STD amplification factor, ref to SP1 (fraction) (PBP5:PenG complex; 1H K3β): 1.026 | STD, ref to SP1 (percent) (PBP5:PenG complex; 1H K3β): 102.583 | STD amplification factor (PBP5:PenG complex; 1H K3β): 27.6034 | STD amplification factor, ref to SP1 (fraction) (PBP5:PenG complex; 1H K3γ): 0.589 | STD, ref to SP1 (percent) (PBP5:PenG complex; 1H K3γ): 58.9034 | STD amplification factor (PBP5:PenG complex; 1H K3γ): 15.8499 | STD amplification factor, ref to SP1 (fraction) (PBP5:PenG complex; 1H K3δ): 0.6424 | STD, ref to SP1 (percent) (PBP5:PenG complex; 1H K3δ): 64.2392 | STD amplification factor (PBP5:PenG complex; 1H K3δ): 17.2857 | STD amplification factor, ref to SP1 (fraction) (PBP5:PenG complex; 1H K3ε): 0.1756 | STD, ref to SP1 (percent) (PBP5:PenG complex; 1H K3ε): 17.5552 | STD amplification factor (PBP5:PenG complex; 1H K3ε): 4.724 | STD amplification factor, ref to SP1 (fraction) (PBP5:PenG complex; 1H LA1α): 0.4522 | STD, ref to SP1 (percent) (PBP5:PenG complex; 1H LA1α): 45.2214 | STD amplification factor (PBP5:PenG complex; 1H LA1α): 12.1683 | STD amplification factor, ref to SP1 (fraction) (PBP5:PenG complex; 1H LA1β): 0.3642 | STD, ref to SP1 (percent) (PBP5:PenG complex; 1H LA1β): 36.4217 | STD amplification factor (PBP5:PenG complex; 1H LA1β): 9.8 | STD amplification factor, ref to SP1 (fraction) (PBP5:PenG complex; 1H iNα,DQ2α): 0.2492 | STD, ref to SP1 (percent) (PBP5:PenG complex; 1H iNα,DQ2α): 24.9206 | STD amplification factor (PBP5:PenG complex; 1H iNα,DQ2α): 6.706 | STD amplification factor, ref to SP1 (fraction) (PBP5:PenG complex; 1H iNβ): 0.3249 | STD, ref to SP1 (percent) (PBP5:PenG complex; 1H iNβ): 32.4924 | STD amplification factor (PBP5:PenG complex; 1H iNβ): 8.743
